Results taken from patent US20240041877A1, “DOSAGE REGIME AND METHOD FOR TREATING PULMONARY ARTERIAL HYPERTENSION” (Altavant Sciences GmbH, priority 2019, published 2024).

Assay: Study KAR5585-101 Part 1 (SAD): plasma pharmacokinetics after a single oral dose of KAR5585, fasting and fed (incl. dose proportionality and food effect)
Conditions: for half-life / AUC(0-t) / AUC / AUC(0-inf) / concentration at 12 h / Cmax / Tmax: human, po; for AUC: AUC0-tau; for AUC(0-inf): AUC0-∞; for Tmax: Median
[1] = 100 mg to 700 mg dose (7-fold increase in dose), fasting
[2] = 400 mg KAR5585, Cohort 3B (test) vs 3A (reference)
[3] = 400 mg KAR5585 single dose, Cohorts 3B vs 3A
[4] = 700 mg to 2000 mg (2.86-fold increase in dose), fasting
[5] = 100 to 2000 mg KAR5585 single oral dose, fasting, plasma analyte = label
[6] = KAR5417 after 100 mg KAR5585 single oral, fasted, Cohort 1, Geo. Mean
[7] = KAR5417 after 100 mg KAR5585 single oral, fasted, Cohort 1, Mean
[8] = KAR5417 after 200 mg KAR5585 single oral, fasted, Cohort 2, Geo. Mean
[9] = KAR5417 after 200 mg KAR5585 single oral, fasted, Cohort 2, Mean
[10] = KAR5417 after 400 mg KAR5585 single oral, fasted, Cohort 3A, Geo. Mean
[11] = KAR5417 after 400 mg KAR5585 single oral, fasted, Cohort 3A, Mean
[12] = KAR5417 after 400 mg KAR5585 single oral, fed, Cohort 3B, Geo. Mean
[13] = KAR5417 after 400 mg KAR5585 single oral, fed, Cohort 3B, Mean
[14] = KAR5417 after 700 mg KAR5585 single oral, fasted, Cohort 4, Geo. Mean
[15] = KAR5417 after 700 mg KAR5585 single oral, fasted, Cohort 4, Mean
[16] = KAR5417 after 1200 mg KAR5585 single oral, fasted, Cohort 5, Geo. Mean
[17] = KAR5417 after 1200 mg KAR5585 single oral, fasted, Cohort 5, Mean
[18] = KAR5417 after 2000 mg KAR5585 single oral, fasted, Cohort 6, Geo. Mean
[19] = KAR5417 after 2000 mg KAR5585 single oral, fasted, Cohort 6, Mean
[20] = plasma, 100 mg, KAR5417 after 100 mg KAR5585 single oral, fasted, Cohort 1, Geo. Mean
[21] = plasma, 100 mg, KAR5417 after 100 mg KAR5585 single oral, fasted, Cohort 1, Mean
[22] = plasma, 200 mg, KAR5417 after 200 mg KAR5585 single oral, fasted, Cohort 2, Geo. Mean
[23] = plasma, 200 mg, KAR5417 after 200 mg KAR5585 single oral, fasted, Cohort 2, Mean

Protocol: Food effect was to be evaluated in Part 1, Period 2. Part 2 was permitted to begin before Part 1 was completed and, in each part, the data from each dose Cohort were to be reviewed for safety before the next dose Cohort was enrolled.
Part 1 had 6 Cohorts of 12 subjects each (for a total of 72 subjects) and Part 2 had 4 Cohorts of 12 subjects each (for a total of 48 subjects). In Part 1, the 12 subjects in Cohort 3 (400 mg)were studied twice, once under fasting conditions (Period 1) and once under fed conditions (Period 2) for food-effect assessment.
Pharmacokinetic data were to be summarized descriptively.

## Nc1nc(O[C@H](c2ccc(Cl)cc2-c2ccccc2)C(F)(F)F)cc(N2CCC3(CC2)CN[C@H](C(=O)O)C3)n1 [KAR5417, (S)-8-(2-amino-6-((R)-1-(5-chloro-[1,1T-biphenyl]-2-yl)-2,2,2-trifluoroeth-oxy)pyrimidin-4-yl)-2,8-diazaspiro[4.5]decane-3-carboxylic acid]
[1]
  fold increase in mean AUC0-24: 6.3 fold
  fold increase in mean AUC0-inf: 6.8 fold
  fold increase in mean Cmax: 7.27 fold
[2]
  AUC0-inf, Geometric LS Mean Ratio (fed/fasting): 2.02
  AUC0-tau, Geometric LS Mean Ratio (fed/fasting): 2.04
400 mg KAR5585 single dose
  exposure as assessed by AUC0-tau and AUC0-inf, fed relative to fasting: approximately 2 fold
[3]
  fold increase in Cmax, fed vs fasting: 1.8 fold
  fold increase in mean AUC0-inf, fed vs fasting: 1.8 fold
  peak mean concentration under fed relative to fasting conditions, % higher: approximately 177%
[4]
  fold increase in AUC0-24: 1.7 fold
  fold increase in AUC0-inf: 1.81 fold
  fold increase in Cmax: 1.38 fold
[5]
  Dose proportionality power model, AUC0-12: Intercept estimate: 14.5
  Dose proportionality power model, AUC0-inf: Intercept estimate: 12.3
  Dose proportionality power model, AUC0-tau: Intercept estimate: 6.54
  Dose proportionality power model, Cmax: Intercept estimate: 1.95
[6]
  AUC0-24/D: 8.16 (hr*ng/mL)/mg
  Cmax/D: 0.931 (ng/ml)/mg
[7]
  AUC0-24/D: 8.47 (hr*ng/mL)/mg
  Cmax/D: 1.07 (ng/ml)/mg
  t1/2: 4.67 h
[8]
  AUC0-24/D: 4.70 (hr*ng/mL)/mg
  Cmax/D: 0.658 (ng/ml)/mg
[9]
  AUC0-24/D: 5.81 (hr*ng/mL)/mg
  Cmax/D: 0.801 (ng/ml)/mg
[10]
  AUC0-24/D: 7.43 (hr*ng/mL)/mg
  Cmax/D: 1.11 (ng/ml)/mg
[11]
  AUC0-24/D: 8.12 (hr*ng/mL)/mg
  Cmax/D: 1.21 (ng/ml)/mg
[12]
  AUC0-24/D: 13.4 (hr*ng/mL)/mg
  Cmax/D: 2.08 (ng/ml)/mg
[13]
  AUC0-24/D: 13.6 (hr*ng/mL)/mg
  Cmax/D: 2.15 (ng/ml)/mg
[14]
  AUC0-24/D: 5.31 (hr*ng/mL)/mg
  Cmax/D: 0.777 (ng/ml)/mg
[15]
  AUC0-24/D: 7.58 (hr*ng/mL)/mg
  Cmax/D: 1.11 (ng/ml)/mg
[16]
  AUC0-24/D: 4.84 (hr*ng/mL)/mg
  Cmax/D: 0.636 (ng/ml)/mg
[17]
  AUC0-24/D: 5.66 (hr*ng/mL)/mg
  Cmax/D: 0.747 (ng/ml)/mg
[18]
  AUC0-24/D: 4.26 (hr*ng/mL)/mg
  Cmax/D: 0.515 (ng/ml)/mg
[19]
  AUC0-24/D: 4.54 (hr*ng/mL)/mg
  Cmax/D: 0.542 (ng/ml)/mg
In vivo, 700 mg
  half-life: 12.1 h
plasma, 100 mg, AUC0-12, KAR5417 after 100 mg KAR5585 single oral, fasted, Cohort 1, Geo. Mean
  AUC(0-t): 0.686 µg·h/mL
plasma, 100 mg, AUC0-12, KAR5417 after 100 mg KAR5585 single oral, fasted, Cohort 1, Mean
  AUC(0-t): 0.704 µg·h/mL
plasma, 100 mg, AUC0-24, KAR5417 after 100 mg KAR5585 single oral, fasted, Cohort 1, Geo. Mean
  AUC(0-t): 0.816 µg·h/mL
plasma, 100 mg, AUC0-24, KAR5417 after 100 mg KAR5585 single oral, fasted, Cohort 1, Mean
  AUC(0-t): 0.847 µg·h/mL
[20]
  AUC: 0.605 µg·h/mL
  AUC(0-inf): 0.847 µg·h/mL
  Cmax: 0.0931 µg/mL
[21]
  AUC: 0.718 µg·h/mL
  AUC(0-inf): 0.886 µg·h/mL
  Cmax: 0.107 µg/mL
plasma, 100 mg, C12, KAR5417 after 100 mg KAR5585 single oral, fasted, Cohort 1, Geo. Mean
  concentration at 12 h: 0.0225 µg/mL
plasma, 100 mg, C12, KAR5417 after 100 mg KAR5585 single oral, fasted, Cohort 1, Mean
  concentration at 12 h: 0.0238 µg/mL
plasma, 100 mg, Plasma AUC0-96, KAR5417 in plasma, 100 mg KAR5585 single oral dose, mean
  AUC(0-t): 0.889 µg·h/mL
plasma, 100 mg, t1/2, KAR5417 after 100 mg KAR5585 single oral, fasted, Cohort 1, Geo. Mean
  half-life: 4.51 h
plasma, 100 mg, t1/2, KAR5417 after 100 mg KAR5585 single oral, fasted, Cohort 1, Mean
  half-life: 4.7 h
plasma, 100 mg, KAR5417 after 100 mg KAR5585 single oral, fasted, Cohort 1
  Tmax: 4 h
plasma, 200 mg, AUC0-12, KAR5417 after 200 mg KAR5585 single oral, fasted, Cohort 2, Geo. Mean
  AUC(0-t): 0.771 µg·h/mL
plasma, 200 mg, AUC0-12, KAR5417 after 200 mg KAR5585 single oral, fasted, Cohort 2, Mean
  AUC(0-t): 0.947 µg·h/mL
plasma, 200 mg, AUC0-24, KAR5417 after 200 mg KAR5585 single oral, fasted, Cohort 2, Geo. Mean
  AUC(0-t): 0.94 µg·h/mL
plasma, 200 mg, AUC0-24, KAR5417 after 200 mg KAR5585 single oral, fasted, Cohort 2, Mean
  AUC(0-t): 1.16 µg·h/mL
[22]
  AUC: 0.866 µg·h/mL
  AUC(0-inf): 0.988 µg·h/mL
  Cmax: 0.132 µg/mL
[23]
  AUC: 1.12 µg·h/mL
  AUC(0-inf): 1.23 µg·h/mL
  Cmax: 0.16 µg/mL
plasma, 200 mg, C12, KAR5417 after 200 mg KAR5585 single oral, fasted, Cohort 2, Geo. Mean
  concentration at 12 h: 0.0273 µg/mL
plasma, 200 mg, C12, KAR5417 after 200 mg KAR5585 single oral, fasted, Cohort 2, Mean
  concentration at 12 h: 0.0329 µg/mL
plasma, 200 mg, Plasma AUC0-96, KAR5417 in plasma, 200 mg KAR5585 single oral dose, mean
  AUC(0-t): 1.24 µg·h/mL
plasma, 200 mg, t1/2, KAR5417 after 200 mg KAR5585 single oral, fasted, Cohort 2, Geo. Mean
  half-life: 5.29 h
plasma, 200 mg, t1/2, KAR5417 after 200 mg KAR5585 single oral, fasted, Cohort 2, Mean
  half-life: 5.4 h
plasma, 200 mg, KAR5417 after 200 mg KAR5585 single oral, fasted, Cohort 2
  Tmax: 3 h
plasma, 400 mg, AUC0-12, KAR5417 after 400 mg KAR5585 single oral, fasted, Cohort 3A, Geo. Mean
  AUC(0-t): 2.46 µg·h/mL
plasma, 400 mg, AUC0-12, KAR5417 after 400 mg KAR5585 single oral, fasted, Cohort 3A, Mean
  AUC(0-t): 2.69 µg·h/mL
plasma, 400 mg, AUC0-12, KAR5417 after 400 mg KAR5585 single oral, fed, Cohort 3B, Geo. Mean
  AUC(0-t): 4.17 µg·h/mL
plasma, 400 mg, AUC0-12, KAR5417 after 400 mg KAR5585 single oral, fed, Cohort 3B, Mean
  AUC(0-t): 4.24 µg·h/mL
plasma, 400 mg, AUC0-24, KAR5417 after 400 mg KAR5585 single oral, fasted, Cohort 3A, Geo. Mean
  AUC(0-t): 2.97 µg·h/mL
plasma, 400 mg, AUC0-24, KAR5417 after 400 mg KAR5585 single oral, fasted, Cohort 3A, Mean
  AUC(0-t): 3.25 µg·h/mL
plasma, 400 mg, AUC0-24, KAR5417 after 400 mg KAR5585 single oral, fed, Cohort 3B, Geo. Mean
  AUC(0-t): 5.37 µg·h/mL
plasma, 400 mg, AUC0-24, KAR5417 after 400 mg KAR5585 single oral, fed, Cohort 3B, Mean
  AUC(0-t): 5.43 µg·h/mL
